Results on seven compounds are retold here after ChEMBL document CHEMBL3046080, “Synthesis of imidazole-derived steroidal hybrids as potent aromatase inhibitors” (Med Chem Res, 2013).

The structures appear in SMILES notation.

The target in one data set is T1, Aromatase (Homo sapiens, UniProt P11511).
T1 sequence (P11511 whole entry): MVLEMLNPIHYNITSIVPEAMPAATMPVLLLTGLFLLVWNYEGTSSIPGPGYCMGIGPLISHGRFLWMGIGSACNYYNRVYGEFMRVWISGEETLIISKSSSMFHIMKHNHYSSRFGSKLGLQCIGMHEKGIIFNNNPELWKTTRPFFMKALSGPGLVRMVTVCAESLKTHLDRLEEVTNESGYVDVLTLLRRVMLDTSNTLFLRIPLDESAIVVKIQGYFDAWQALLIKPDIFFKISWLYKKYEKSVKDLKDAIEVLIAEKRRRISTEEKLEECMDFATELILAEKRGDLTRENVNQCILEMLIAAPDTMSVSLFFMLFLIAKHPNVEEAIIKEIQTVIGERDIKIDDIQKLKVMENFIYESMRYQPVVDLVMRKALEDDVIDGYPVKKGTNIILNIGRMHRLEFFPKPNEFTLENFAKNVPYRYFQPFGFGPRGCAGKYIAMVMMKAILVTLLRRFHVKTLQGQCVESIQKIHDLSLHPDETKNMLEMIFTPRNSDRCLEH
More on the design: species or system Placenta, Microsome.

Data set [1] concerns the target T2, aromatase (CYP19) (Homo sapiens, UniProt P11511).
T2 sequence (P11511 whole entry): T1 sequence (P11511 whole entry)
Briefly: Inhibition of aromatase in Homo sapiens (human) placental microsome assessed as tritiated H2O release from [1-beta-3H] androstenedione substrate at 5 uM preincubated with substrate for 5 min prior to enzyme addition measured after 20 min by beta-scintillation counting analysis. More on the design: species or system Placenta. Particulars: placental microsomes, probe [1-beta-3H] androstenedione.

In data set [2] the target is T2, aromatase (CYP19). Briefly: Inhibition of aromatase in Homo sapiens (human) placental microsome assessed as tritiated H2O release from [1-beta-3H] androstenedione substrate at 36 uM preincubated with substrate for 5 min prior to enzyme addition measured after 20 min by beta-scintillation counting analysis. More on the design: species or system Placenta. Particulars: placental microsomes, probe [1-beta-3H] androstenedione.

The IC50 is the concentration that inhibits the measured activity by half. One may read the inhibition as the percentage by which the read-out fell short of the control.

In the case of `C[C@]12CCC(=O)C=C1CC[C@@H]1[C@@H]2CC[C@]2(C)C(=O)/C(=C/c3ccc(OCCCn4ccnc4)cc3)C[C@@H]12`, 11.9 µM corresponded to half-maximal inhibition at Aromatase (IC50). Turning to `C[C@]12CC[C@H](O)CC1=CC[C@@H]1[C@@H]2CC[C@]2(C)C(=O)/C(=C/c3ccc(OCCCn4ccnc4)cc3)C[C@@H]12`, the inhibition at 20 min, 5 µM on aromatase (CYP19) [1] stood at 4.1%.

With `C[C@]12CC[C@H](O)CC1=CC[C@@H]1[C@@H]2CC[C@]2(C)C(=O)/C(=C/c3ccc(OCCCCl)cc3)C[C@@H]12`, at aromatase (CYP19) [1], the inhibition at 20 min, 5 µM turned out to be 0.2%. For `CC(=O)O[C@H]1CC[C@@]2(C)C(=CC[C@@H]3[C@@H]2CC[C@]2(C)C(=O)/C(=C/c4cccc(OCCCn5ccnc5)c4)C[C@@H]32)C1`, the inhibition at 20 min, 36 µM on aromatase (CYP19) [2] is 38%. The same measure, in the same setting: to `CC(=O)O[C@H]1CC[C@@]2(C)C(=CC[C@H]3[C@@H]4C/C(=C\c5cccc(OCCCn6ccnc6)c5)[C@H](OC(C)=O)[C@@]4(C)CC[C@@H]32)C1` belongs 34%. With `C[C@]12CC[C@H]3[C@@H](CC=C4C[C@@H](O)CC[C@@]43C)[C@@H]1C/C(=C\c1cccc(OCCCn3ccnc3)c1)[C@@H]2O`, on Aromatase, half-maximal inhibition (IC50) required 9.1 µM. As for `C[C@]12CC[C@H](O)CC1=CC[C@@H]1[C@@H]2CC[C@]2(C)C(=O)/C(=C/c3cccc(OCCCn4ccnc4)c3)C[C@@H]12`, the inhibition at 20 min, 36 µM at aromatase (CYP19) [2] worked out at 34%.
